Test results reported in ChEMBL document CHEMBL5335838, “The medicinal chemistry evolution of antibody-drug conjugates” (RSC Med Chem, 2024).
In brackets after ≈: the same amount, converted by molar mass.

Assays:
[1] = target: T1, Glucocorticoid receptor (Homo sapiens, UniProt P04150); test: Inhibition of glucocorticoid receptor (unknown origin)
T1 sequence (P04150 whole entry): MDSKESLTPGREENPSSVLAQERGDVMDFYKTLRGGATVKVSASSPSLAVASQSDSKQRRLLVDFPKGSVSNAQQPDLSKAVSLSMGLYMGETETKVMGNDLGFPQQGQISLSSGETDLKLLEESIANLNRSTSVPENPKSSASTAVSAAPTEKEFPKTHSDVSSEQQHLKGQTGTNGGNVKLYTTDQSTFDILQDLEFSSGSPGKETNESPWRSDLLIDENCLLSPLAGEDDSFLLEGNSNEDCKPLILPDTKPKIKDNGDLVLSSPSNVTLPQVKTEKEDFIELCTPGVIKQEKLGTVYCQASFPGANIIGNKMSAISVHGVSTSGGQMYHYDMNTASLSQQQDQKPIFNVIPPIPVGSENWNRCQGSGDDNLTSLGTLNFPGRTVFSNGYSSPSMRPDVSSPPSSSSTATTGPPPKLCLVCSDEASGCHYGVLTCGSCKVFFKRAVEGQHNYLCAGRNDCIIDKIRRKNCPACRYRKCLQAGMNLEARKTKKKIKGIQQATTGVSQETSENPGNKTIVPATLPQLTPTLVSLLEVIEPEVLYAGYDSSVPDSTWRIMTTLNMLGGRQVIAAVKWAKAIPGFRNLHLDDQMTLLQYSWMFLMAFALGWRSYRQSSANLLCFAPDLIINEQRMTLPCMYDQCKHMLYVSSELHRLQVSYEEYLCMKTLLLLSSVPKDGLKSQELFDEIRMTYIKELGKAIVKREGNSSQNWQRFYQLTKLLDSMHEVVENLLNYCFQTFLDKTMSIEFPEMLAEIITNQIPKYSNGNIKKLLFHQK

[2] = Permeability of the compound by PAMPA assay; type: ADME; conditions: read-out: permeability
[3] = target: T2, Cytochrome P450 1A2 (Homo sapiens, UniProt P05177); test: Inhibition of CYP1A2 (unknown origin); type: ADME
T2 sequence (P05177 whole entry): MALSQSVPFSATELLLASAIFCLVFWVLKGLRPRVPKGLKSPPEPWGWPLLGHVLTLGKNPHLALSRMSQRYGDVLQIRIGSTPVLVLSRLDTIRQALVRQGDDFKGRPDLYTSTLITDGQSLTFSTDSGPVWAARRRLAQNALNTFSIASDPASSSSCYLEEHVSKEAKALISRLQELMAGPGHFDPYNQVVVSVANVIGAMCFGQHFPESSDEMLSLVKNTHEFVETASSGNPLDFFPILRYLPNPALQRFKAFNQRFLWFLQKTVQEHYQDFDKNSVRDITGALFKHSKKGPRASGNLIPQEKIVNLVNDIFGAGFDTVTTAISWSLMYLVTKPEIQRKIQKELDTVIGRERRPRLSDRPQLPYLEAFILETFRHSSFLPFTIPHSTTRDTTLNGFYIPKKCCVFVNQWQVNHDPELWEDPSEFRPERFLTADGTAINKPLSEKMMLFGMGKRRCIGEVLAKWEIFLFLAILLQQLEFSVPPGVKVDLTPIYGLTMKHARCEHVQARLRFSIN

[4] = Solubility of compound at pH 7.4; type: physicochemical; conditions: buffer
[5] = Permeability of compound at pH 7.4 by PAMPA assay; type: ADME; conditions: read-out: permeability
[6] = Tmax in CD1 mouse at 10 mg/kg, po; type: ADME, organism-based; conditions: in vivo
[7] = Cmax in CD1 mouse at 10 mg/kg, po; type: ADME, organism-based; set-up: dose 10 mg/kg, route po; conditions: in vivo
[8] = Half life in CD1 mouse at 3 mg/kg, iv; type: ADME, organism-based; conditions: in vivo
[9] = Half life in CD1 mouse at 10 mg/kg, po; type: ADME, organism-based; conditions: in vivo
[10] = AUC in Sprague-Dawley rat at 0.5 mg/kg, iv; type: ADME, organism-based; set-up: dose 0.5 mg/kg, route iv; conditions: in vivo
[11] = Volume of distribution at steady state in CD1 mouse at 3 mg/kg, iv; type: ADME, organism-based; conditions: in vivo, read-out: Vdss
[12] = Plasma clearance in Sprague-Dawley rat at 0.5 mg/kg, iv; type: ADME, organism-based; conditions: in vivo
[13] = Half life in Sprague-Dawley rat at 3 mg/kg, po; type: ADME, organism-based; conditions: in vivo
[14] = Tmax in Sprague-Dawley rat at 3 mg/kg, po; type: ADME, organism-based; conditions: in vivo
[15] = Plasma protein binding in mouse assessed as unbound fraction; type: ADME, cell-free
[16] = AUC in CD1 mouse at 3 mg/kg, iv; type: ADME, organism-based; set-up: dose 3 mg/kg, route iv; conditions: in vivo
[17] = Oral bioavailability in Sprague-Dawley rat at 3 mg/kg; type: ADME, organism-based; conditions: in vivo
[18] = Plasma clearance in CD1 mouse at 3 mg/kg, iv; type: ADME, organism-based; conditions: in vivo
[19] = target: Cytochrome P450 2C9 (Homo sapiens, UniProt P11712); test: Inhibition of CYP2C9 (unknown origin); type: ADME
[20] = target: Cytochrome P450 3A4 (Homo sapiens, UniProt P08684); test: Inhibition of CYP3A4 (unknown origin); type: ADME
[21] = AUC (0 to infinity) in Sprague-Dawley rat at 3 mg/kg, po; type: ADME, organism-based; set-up: dose 3 mg/kg, route po; conditions: in vivo
[22] = target: Cytochrome P450 2D6 (Homo sapiens, UniProt P10635); test: Inhibition of CYP2D6 (unknown origin); type: ADME
[23] = Cmax in Sprague-Dawley rat at 3 mg/kg, po; type: ADME, organism-based; set-up: dose 3 mg/kg, route po; conditions: in vivo
[24] = AUC (0 to infinity) in CD1 mouse at 10 mg/kg, po; type: ADME, organism-based; set-up: dose 10 mg/kg, route po; conditions: in vivo
[25] = Oral bioavailability in CD1 mouse at 10 mg/kg; type: ADME, organism-based; conditions: in vivo
[26] = Volume of distribution at steady state in Sprague-Dawley rat at 0.5 mg/kg, iv; type: ADME, organism-based; conditions: in vivo, read-out: Vdss
[27] = Half life in Sprague-Dawley rat at 0.5 mg/kg, iv; type: ADME, organism-based; conditions: in vivo

Sequence of Cytochrome P450 3A4 (P08684 whole entry): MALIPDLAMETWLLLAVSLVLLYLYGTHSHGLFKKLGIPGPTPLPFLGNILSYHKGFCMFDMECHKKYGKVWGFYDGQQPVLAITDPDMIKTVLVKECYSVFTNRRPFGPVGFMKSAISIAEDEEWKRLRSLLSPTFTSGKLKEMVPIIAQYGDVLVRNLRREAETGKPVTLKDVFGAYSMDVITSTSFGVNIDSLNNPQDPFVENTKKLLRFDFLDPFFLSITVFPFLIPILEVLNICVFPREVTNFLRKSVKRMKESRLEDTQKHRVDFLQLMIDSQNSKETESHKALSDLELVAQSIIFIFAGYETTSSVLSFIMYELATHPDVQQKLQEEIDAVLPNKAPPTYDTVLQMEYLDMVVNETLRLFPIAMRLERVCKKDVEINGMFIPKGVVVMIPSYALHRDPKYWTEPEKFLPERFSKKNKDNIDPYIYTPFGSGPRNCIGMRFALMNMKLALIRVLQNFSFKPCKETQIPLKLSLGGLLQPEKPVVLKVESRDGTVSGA
Sequence of Cytochrome P450 2D6 (P10635 whole entry): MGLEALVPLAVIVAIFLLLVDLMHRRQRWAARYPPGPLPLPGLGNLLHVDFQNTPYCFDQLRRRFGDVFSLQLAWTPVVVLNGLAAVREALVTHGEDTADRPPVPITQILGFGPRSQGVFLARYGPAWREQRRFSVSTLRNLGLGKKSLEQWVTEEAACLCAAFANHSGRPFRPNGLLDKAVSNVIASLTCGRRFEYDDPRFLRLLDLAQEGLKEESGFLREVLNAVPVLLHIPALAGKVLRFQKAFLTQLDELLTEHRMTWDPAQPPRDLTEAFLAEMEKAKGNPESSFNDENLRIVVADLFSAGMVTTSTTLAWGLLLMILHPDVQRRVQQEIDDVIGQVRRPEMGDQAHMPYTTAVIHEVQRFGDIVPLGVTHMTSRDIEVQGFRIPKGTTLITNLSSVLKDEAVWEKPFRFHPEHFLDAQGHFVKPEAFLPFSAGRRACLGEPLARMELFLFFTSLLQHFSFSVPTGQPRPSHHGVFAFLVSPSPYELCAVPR
Sequence of Cytochrome P450 2C9 (P11712 whole entry): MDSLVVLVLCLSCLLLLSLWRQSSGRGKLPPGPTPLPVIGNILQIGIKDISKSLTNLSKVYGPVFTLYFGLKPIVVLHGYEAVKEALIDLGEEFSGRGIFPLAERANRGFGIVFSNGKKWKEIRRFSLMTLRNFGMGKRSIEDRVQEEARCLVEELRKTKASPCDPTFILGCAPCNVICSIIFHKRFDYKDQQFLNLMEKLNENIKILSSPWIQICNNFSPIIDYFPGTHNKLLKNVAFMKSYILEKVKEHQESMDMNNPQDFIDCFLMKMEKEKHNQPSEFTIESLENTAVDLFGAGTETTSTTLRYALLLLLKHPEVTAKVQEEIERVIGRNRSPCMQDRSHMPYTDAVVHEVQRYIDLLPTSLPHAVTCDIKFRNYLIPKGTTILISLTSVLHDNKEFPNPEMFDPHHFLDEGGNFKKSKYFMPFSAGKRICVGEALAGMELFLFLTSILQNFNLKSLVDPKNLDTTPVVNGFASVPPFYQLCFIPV

C[C@]12C=CC(=O)C=C1CC[C@@H]1[C@@H]2[C@@H](O)C[C@@]2(C)[C@H]1C[C@H]1O[C@@H](C3CCCCC3)O[C@]12C(=O)CO [DESISOBUTYRYLCICLESONIDE]
IC50 [1]: 0.002 µM

C[C@]12C=CC(=O)C=C1CC[C@@H]1[C@@H]2[C@@H](O)C[C@@]2(C)[C@H]1C[C@H]1O[C@@H](c3ccc(CN4CCNCC4)cc3)O[C@]12C(=O)CO
Papp [2]: 0.23 ×10⁻⁶ cm/s

C[C@]12C=CC(=O)C=C1CC[C@@H]1[C@@H]2[C@@H](O)C[C@@]2(C)[C@H]1C[C@H]1O[C@@H](c3ccc(Cc4cccc(N)c4)cc3)O[C@]12C(=O)CO
IC50 [3]: > 40 µM | solubility [4]: 1.33 µM (≈ 0.758 µg/mL) | Papp [5]: 0.2 ×10⁻⁶ cm/s | Tmax [6]: 1.42 h | Cmax [7]: 40 ng/mL | half-life [8]: 3.82 h | half-life [9]: 3.56 h | AUC [10]: 220 ng·h/mL | Vd [11]: 2.91 L/kg | clearance [12]: 37.8 mL/min/kg | half-life [13]: 2.86 h | Tmax [14]: 0.25 h | Fu [15]: 0.01% | AUC [16]: 3580 ng·h/mL | bioavailability [17]: 16.8% | clearance [18]: 14.2 mL/min/kg | IC50 [19]: 18.4 µM | IC50 [20]: < 0.02 µM | AUC(0-inf) [21]: 220 ng·h/mL | IC50 [22]: > 40 µM | Cmax [23]: 80 ng/mL | AUC [24]: 0.21 µg/h/mL | bioavailability [25]: 1% | Vd [26]: 2.55 L/kg | half-life [27]: 1.2 h

C[C@]12C=CC(=O)C=C1[C@@H](F)C[C@H]1[C@@H]3C[C@H]4O[C@@H](c5ccc(CN6CCNCC6)cc5)O[C@@]4(C(=O)CO)[C@@]3(C)C[C@H](O)[C@@]12F
Papp [2]: 0.22 ×10⁻⁶ cm/s
